This assay has as its target ERα (estrogen receptor alpha) (Homo sapiens, UniProt P03372). Kind of assay: fluorescence polarization competitor assay. The format is binding. Background: Fluorescence polarisation rises when a labelled molecule tumbles more slowly, as on binding a larger partner.

Among the data in publication PMC6992940 (Bone Reports, 2020) are IC50 values, retold here.

The structures appear in SMILES notation.

Sequence of ERα (estrogen receptor alpha) (P03372 whole entry): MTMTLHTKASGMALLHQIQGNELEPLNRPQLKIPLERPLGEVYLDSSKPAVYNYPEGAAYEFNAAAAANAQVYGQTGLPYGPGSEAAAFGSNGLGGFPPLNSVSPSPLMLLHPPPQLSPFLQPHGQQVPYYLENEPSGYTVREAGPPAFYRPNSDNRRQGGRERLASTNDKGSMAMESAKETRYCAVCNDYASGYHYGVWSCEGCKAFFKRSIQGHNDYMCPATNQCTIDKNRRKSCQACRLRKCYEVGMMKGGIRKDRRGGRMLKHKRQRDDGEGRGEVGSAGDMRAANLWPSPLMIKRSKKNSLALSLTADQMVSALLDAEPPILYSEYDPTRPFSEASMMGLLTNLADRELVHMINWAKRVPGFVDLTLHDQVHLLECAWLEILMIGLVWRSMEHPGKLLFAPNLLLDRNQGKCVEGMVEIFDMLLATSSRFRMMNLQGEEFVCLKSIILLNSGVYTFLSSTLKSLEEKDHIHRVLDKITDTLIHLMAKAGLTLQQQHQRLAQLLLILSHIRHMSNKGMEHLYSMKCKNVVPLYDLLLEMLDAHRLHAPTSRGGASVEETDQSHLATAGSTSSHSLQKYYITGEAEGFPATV

In the case of `COc1ccc2c(C(=O)c3ccc(OCCN4CCCCC4)cc3)c(-c3ccc(O)cc3)sc2c1` [compound 2, (2-(4-hydroxyphenyl)-6-methoxybenzo[b]thiophen-3-yl)(4-(2-(piperidin-1-yl)ethoxy)phenyl)methanone], the 50% inhibitory concentration (IC50) (usually the concentration that gives 50% inhibition) is 0.183 µM.
